Experimental data: patent publication US20060217352A1, “Method for treating thrombosis” (Kowa Co., Ltd., priority 2005, published 2006)

Tests used:
whole blood coagulation = experiment: Thromboelastograph whole blood coagulation time (r+k value) after 14-day oral administration to guinea pigs; conditions: guinea pig, oral once a day for 14 days, pitavastatin calcium 3 mg/kg and/or aspirin 100 mg/kg; for Whole blood coagulation time (r + k value): blood after 18 hours of fasting, average ± standard deviation; for Whole blood coagulation time (r + k value), relative value: relative to control group (100)
clot formation = experiment: Thromboelastograph maximal amplitude (MA) of clot formation after 14-day oral administration to guinea pigs; assay type: in vivo, Hartley male guinea pigs; conditions: guinea pig, oral once a day for 14 days, pitavastatin calcium 3 mg/kg and/or aspirin 100 mg/kg; for Maximal amplitude (MA) of clot formation: blood after 18 hours of fasting, average ± standard deviation; for Maximal amplitude (MA) of clot formation, relative value: relative to control group (100)
Description: The animals used in the test were 6 week old Hartley male guinea pigs (Japan SLC, Inc.), and these animals were kept throughout the test period in a breeding chamber with controlled day and night cycle (light period under illumination of room light, 7 am to 7 pm) at a temperature of 23±3° C. and a humidity of 55±15%.
24 guinea pigs were divided into 4 groups (5 or 6 animals in each group), namely, control group (with no drug administration), the group solely administered with pitavastatin calcium (3 mg/kg), the group solely administered with aspirin (100 mg/kg), and the group administered with a combination of pitavastatin calcium (3 mg/kg) and aspirin (100 mg/kg).

Row | Structure (SMILES) | Whole blood coagulation time (r + k value) (whole blood coagulation) [min] | Whole blood coagulation time (r + k value), relative value (whole blood coagulation) [%] | Maximal amplitude (MA) of clot formation (clot formation) [mm] | Maximal amplitude (MA) of clot formation, relative value (clot formation) [%]
1 | CC(=O)Oc1ccccc1C(=O)O [Aspirin, acetyl salitylic acid] | 12.7 ± 1.6 | 109 | 71.0 ± 3.1 | 98
2 | O=C(O)C[C@H](O)C[C@H](O)/C=C/c1c(C2CC2)nc2ccccc2c1-c1ccc(F)cc1 [Pitavastatin, (3R,5S,6E)-7-[2-cyclopropyl-4-(4-fluorophenyl)-3-quinolyl]-3,5-dihydroxy-6-heptenoic acid] | 12.8 ± 2.4 | 110 | 71.8 ± 5.0 | 99
